# Measured values taken from ChEMBL document CHEMBL1255562, “6,7-Dihydroxy-4-phenylcoumarin as inhibitor of aldose reductase 2” (Bioorg Med Chem Lett, 2010).
# Columns and labels:
# [1] = target: Aldo-keto reductase family 1 member B1 (Homo sapiens, UniProt P15121); experiment: Inhibition human recombinant […] by spectrophotometric analysis
# [2] = Inhibition kidney aldose reductase 2 by spectrophotometric analysis
# [3] = target: T1, Sorbitol dehydrogenase (Homo sapiens, UniProt Q00796); experiment: Inhibition sorbitol dehydrogenase by spectrophotometric analysis
# T1 sequence (Q00796 whole entry): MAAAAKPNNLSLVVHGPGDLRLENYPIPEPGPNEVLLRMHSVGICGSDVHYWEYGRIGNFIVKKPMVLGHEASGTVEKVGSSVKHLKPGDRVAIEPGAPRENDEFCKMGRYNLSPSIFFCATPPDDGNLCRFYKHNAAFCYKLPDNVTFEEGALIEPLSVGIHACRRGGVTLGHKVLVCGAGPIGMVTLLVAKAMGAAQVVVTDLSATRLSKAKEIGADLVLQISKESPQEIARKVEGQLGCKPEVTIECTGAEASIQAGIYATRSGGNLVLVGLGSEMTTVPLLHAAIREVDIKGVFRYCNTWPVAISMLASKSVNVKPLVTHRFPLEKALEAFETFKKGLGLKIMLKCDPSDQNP
# [4] = Selectivity index, ratio of IC50 for sorbitol dehydrogenase to IC50 for kidney aldose reductase 2
# [5] = Selectivity index, ratio of IC50 for human recombinant […] to IC50 for kidney aldose reductase 2
# [6] = species on record: Rattus norvegicus; experiment: Reduction of galactitol accumulation in Wistar rat lens after 24 hrs; type: functional, tissue-based; conditions: Lens of camera-type eye
IC50 [1] [µM],IC50 [2] [µM],IC50 [3] [µM],Ratio IC50 [4],Ratio IC50 [5],SMILES,Activity [6]
64.4,38.3,212,5.54,1.68,Cc1cc(=O)oc2cc(O)c(O)cc12 [4-METHYLESCULETIN],–
63.3,53.4,335,6.27,1.19,O=C(O)Cc1cc(=O)oc2cc(O)c(O)cc12,–
62,172,106,0.62,0.35,O=c1oc2ccccc2cc1O [3-HYDROXYCOUMARIN],–
> 500,> 400,> 400,–,–,O=c1ccc2ccccc2o1 [COUMARIN],–
56.2,101,> 250,> 2.48,0.56,COc1cc2oc(=O)ccc2cc1O [ISOSCOPOLETIN],–
–,1.4,67.7,–,–,CC(/C=C1\SC(=S)N(CC(=O)O)C1=O)=C\c1ccccc1,–
20.8,142,163,1.15,0.15,O=C(O)Cc1cc(=O)oc2cc(O)ccc12,–
24.5,89.9,153,1.7,0.27,Cc1cc(=O)oc2cc(O)ccc12 [HYMECROMONE],–
2.4,36.7,70.7,1.93,0.07,O=c1cc(-c2ccccc2)c2ccc(O)cc2o1,–
67.2,36.5,82.9,2.27,1.84,O=c1ccc2cc(O)c(O)cc2o1 [ESCULETIN],–
171,156,> 400,> 2.56,1.1,O=c1ccc2cc(O)ccc2o1 [6-HYDROXYCOUMARIN],–
74.4,46,137,2.98,1.62,COc1cc2ccc(=O)oc2cc1O [SCOPOLETIN],–
–,–,124,–,–,COc1ccc2ccc(=O)oc2c1 [HERNIARIN],–
22.9,85.7,120,1.4,0.27,O=c1ccc2ccc(O)cc2o1 [UMBELLIFERONE],–
66.3,9.6,288,30,6.9,O=c1cc(-c2ccccc2)c2cc(O)c(O)cc2o1,Dose-dependent effect

SMILES,IC50 [1] [µM],IC50 [2] [µM],IC50 [3] [µM],Ratio IC50 [4],Ratio IC50 [5],Activity [6]
O=c1cc(O)c2ccccc2o1 [4-HYDROXYCOUMARINS],> 400,40.5,> 400,> 9.88,> 9.88,–
